According to publication PMC5291514, “Structure activity relationship and modeling studies of inhibitors of lysine specific demethylase 1” (PLoS ONE, 2017):

How the values were obtained:
recombinant human LSD1 = molecular target: T1, recombinant human LSD1 (Homo sapiens, UniProt O60341); assay: LSD1 enzyme inhibition, HRP-coupled Amplex red assay; assay type: biochemical; settings: for Selectivity index for LSD1: LSD1 versus MAO-A and -B; for fold less active against LSD1 than 10: comparator compound 10; for fold more active against LSD1 than compound 24: comparator compound 24; for selectivity for LSD1 inhibition: LSD1 over MAO-A/-B
T1 construct: Human LSD1 catalytic domain, consisting of residues 172–833; GST (N); made in house; host or cells: Escherichia coli BL21-CodonPlus
Method: Human LSD1 catalytic domain, consisting of residues 172–833, was expressed in Escherichia coli BL21-CodonPlus strain (Agilent) as a GST fusion protein, by using a pGEX-KG vector. Briefly, the cells were grown to late log phase at 37°C and then were induced overnight with 0.2 mM IPTG at 25°C. Cells were harvested and lysed by French Press in PBS buffer and the supernatant was subjected to an affinity column chromatography using the glutathione sepharose resin. The eluted LSD1 fractions were further purified with ~90% purity by gel filtration on a Superdex 200 column (GE healthcare).
Horseradish peroxidase (HRP)-coupled assay was used for the evaluation of the inhibitors, based on the reaction rate (i.e., amount of the product H2O2) being quantitatively determined by adding HRP and a HRP fluorescence substrate Amplex red.[20] 30 nM LSD1 was incubated with increasing concentrations of a compound in 50 mM phosphate buffer (pH = 7.0 containing 0.01% Brij-35) for 30 min at 25°C. […] The final volume of the reaction is 60 μL. Upon 20 min incubation, 60 μL solution containing HRP (0.01 unit) and Amplex red (80 μM) was added to quench the reaction. The fluorescence of each well was then determined using a Beckman DTX-880 microplate reader (excitation at 535; emission at 595 nm). Data were imported into Prism 5.0 (GraphPad) and the IC50 values were calculated by using the sigmoidal dose response curve fitting in the software. The reported IC50s were the mean values of at least three independent experiments.

human MAO-A = molecular target: T2, human MAO-A (Homo sapiens, UniProt P21397); assay: Inhibition of MAO-A, MAO-Glo assay kit; assay type: biochemical; settings: Table 2; 100 nM MAO-A, 60 min
T2 construct: purchased Sigma
T2 sequence (P21397 1-527): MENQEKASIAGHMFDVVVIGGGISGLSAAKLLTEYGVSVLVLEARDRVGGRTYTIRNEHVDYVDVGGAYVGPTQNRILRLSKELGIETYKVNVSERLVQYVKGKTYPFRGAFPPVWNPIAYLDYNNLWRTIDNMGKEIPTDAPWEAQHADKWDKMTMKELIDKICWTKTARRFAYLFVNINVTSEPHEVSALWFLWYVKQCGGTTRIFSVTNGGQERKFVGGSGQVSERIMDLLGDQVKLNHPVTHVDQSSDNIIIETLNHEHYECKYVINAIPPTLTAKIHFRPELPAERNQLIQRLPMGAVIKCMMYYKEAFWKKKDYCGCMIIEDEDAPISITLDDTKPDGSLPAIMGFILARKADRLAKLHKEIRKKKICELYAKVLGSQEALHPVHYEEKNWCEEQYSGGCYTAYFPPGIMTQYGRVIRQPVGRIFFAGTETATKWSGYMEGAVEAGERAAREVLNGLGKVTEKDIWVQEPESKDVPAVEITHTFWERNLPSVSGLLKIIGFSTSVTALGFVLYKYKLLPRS
Method: (§1) Inhibition of MAO-A and -B was determined using MAO-Glo assay kit (Promega). Following the manufacturer’s protocol, assays were performed in 384 well white plates (Corning) in the presence of 100 nM MAO-A/-B (Sigma) and MAO substrate. The final volume of each reaction mixture was 20 μL. Reactions were quenched after 60 min by adding reconstituted luciferin detection reagent (20 μL/well). 20 min after addition of detection reagent, the plate was measured in luminescence mode using Beckman DTX-880 microplate reader. IC50 calculation was done similarly.

human MAO-B = molecular target: T3, human MAO-B (Homo sapiens, UniProt P27338); assay: Inhibition of MAO-B, MAO-Glo assay kit; assay type: biochemical; settings: Table 2; 100 nM MAO-B, 60 min
T3 construct: purchased Sigma
T3 sequence (P27338 1-520): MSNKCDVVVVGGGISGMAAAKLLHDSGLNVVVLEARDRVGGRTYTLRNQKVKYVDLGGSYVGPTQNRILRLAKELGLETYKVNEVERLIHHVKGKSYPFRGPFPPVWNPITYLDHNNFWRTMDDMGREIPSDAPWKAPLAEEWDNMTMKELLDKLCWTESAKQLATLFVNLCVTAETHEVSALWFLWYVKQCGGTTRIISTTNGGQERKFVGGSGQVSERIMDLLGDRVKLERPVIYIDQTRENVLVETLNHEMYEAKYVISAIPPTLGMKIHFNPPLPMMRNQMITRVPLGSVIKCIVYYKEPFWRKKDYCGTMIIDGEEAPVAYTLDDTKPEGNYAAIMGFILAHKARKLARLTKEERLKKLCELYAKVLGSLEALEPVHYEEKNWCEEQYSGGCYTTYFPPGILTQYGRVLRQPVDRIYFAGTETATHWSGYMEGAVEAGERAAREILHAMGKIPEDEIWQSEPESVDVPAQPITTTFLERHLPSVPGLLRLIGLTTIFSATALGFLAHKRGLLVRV
Method: as §1

MAO-A and -B = assay: Inhibition of MAO-A/-B, MAO-Glo assay kit, one range given over both enzymes; assay type: biochemical, human; settings: range over both enzymes and the named compounds; read-out: IC50 against MAO-A and -B
Method: as §1

[1] = Table 1, 30 nM LSD1, 30 min preincubation, 10 μM H3K4Me2 peptide

Compound: Brc1ccc(C2CC2N=Cc2ccccc2)cc1 (racemic) [Compound 24]
- IC50 (recombinant human LSD1; [1]): 15.6 µM

Compound: O=C(CNC1CC1c1ccccc1)N1CCNCC1 (racemic) [Compound 13]
- IC50 (recombinant human LSD1; [1]): 0.19 µM
- fold more active against LSD1 than 14 (recombinant human LSD1; comparator compound 14): ~ 7 fold

Compound: CN1CCN(C(=O)CNC2CC2c2ccccc2Br)CC1 (racemic) [Compound 5]
- IC50 (recombinant human LSD1; [1]): > 100 µM

Compound: CC(=O)NC1CC1c1ccc(Br)cc1 (racemic) [Compound 22]
- IC50 (recombinant human LSD1; [1]): 15.4 µM

Compound: O=C(CNC1CC1c1ccc(Br)cc1)N1CCCCC1 (racemic) [Compound 11]
- IC50 (recombinant human LSD1; [1]): 0.62 µM
- IC50 (recombinant human LSD1; Table 2): 0.62 µM
- Selectivity index for LSD1 (recombinant human LSD1; Table 2): <0.82
- fold less active against LSD1 than 10 (recombinant human LSD1): ~ 10 ×
- IC50 (human MAO-A): 0.26 µM
- IC50 (human MAO-B): 0.51 µM

Compound: CN(C)c1ccc(C=NC2CC2c2ccc(Br)cc2)cc1 (racemic) [Compound 29]
- LSD1 inhibitory activity in words (recombinant human LSD1): only modest activities
- IC50 (recombinant human LSD1; [1]): 11 µM

Compound: Brc1ccc(C=NC2CC2c2ccc(Br)cc2)cc1 (racemic) [Compound 25]
- IC50 (recombinant human LSD1; [1]): 1.2 µM
- fold more active against LSD1 than compound 24 (recombinant human LSD1): > 10 ×

Compound: Oc1ccc(CNC2CC2c2ccc(Br)cc2)cc1 (racemic) [Compound 18]
- IC50 (recombinant human LSD1; [1]): 94 µM

Compound: CN1CCN(C(=O)CNC2CC2c2ccc(-c3ccc(F)nc3)cc2)CC1 (racemic) [Compound 2, reference compound]
- IC50 (recombinant human LSD1; [1]): 0.077 µM
- IC50 (recombinant human LSD1; Table 2): 0.077 µM
- Selectivity index for LSD1 (recombinant human LSD1; Table 2): >1,500
- IC50 (human MAO-A): 120 µM
- IC50 (human MAO-B): 480 µM

Compound: Brc1ccc(C2CC2N=Cc2ccncc2)cc1 (racemic) [Compound 30]
- LSD1 inhibitory activity in words (recombinant human LSD1): only modest activities
- IC50 (recombinant human LSD1; [1]): 14 µM

Compound: O=C(CNC1CC1c1ccccc1)N1CCCCC1 (racemic) [Compound 14]
- IC50 (recombinant human LSD1; [1]): 1.3 µM

Compound: O=C(CNNC1CC1c1ccccc1)N1CCNCC1 (racemic) [Compound 32]
- selectivity for LSD1 inhibition (recombinant human LSD1): > 150 fold
- IC50 (recombinant human LSD1; [1]): 0.67 µM
- IC50 (recombinant human LSD1; Table 2): 0.67 µM
- Selectivity index for LSD1 (recombinant human LSD1; Table 2): >145
- fold less active against LSD1 than cyclopropylamine analog 13 (recombinant human LSD1; comparator compound 13): ~ 3 ×
- fold enhanced LSD1 activity over 31 (recombinant human LSD1; comparator compound 31): ~ 9 fold
- IC50 (human MAO-A): 97.5 µM
- IC50 (human MAO-B): 370 µM

Compound: CN1CCN(C(=O)CNC2CC2c2cccc(Br)c2)CC1 (racemic) [Compound 6]
- IC50 (recombinant human LSD1; [1]): > 100 µM

Compound: O=C(CNC1CC1c1ccc(Br)cc1)N1CCCC1 (racemic) [Compound 12]
- IC50 (recombinant human LSD1; [1]): 3.6 µM
- fold less active against LSD1 than 10 (recombinant human LSD1): ~56 ×

Compound: O=C(Nc1ccccc1)NC1CC1c1ccc(Br)cc1 (racemic) [Compound 23]
- IC50 (recombinant human LSD1; [1]): 7.4 µM

Compound: CN1CCN(C(=O)CNC2CC2c2ccc(-c3ccc(Cl)nc3)cc2)CC1 (racemic) [Compound 4]
- IC50 (recombinant human LSD1; [1]): 0.15 µM

Compound: Brc1ccc(C2CC2NCC2CCNCC2)cc1 (racemic) [Compound 15]
- IC50 (recombinant human LSD1; [1]): 0.26 µM

Compound: NNC1CC1c1ccccc1 (stereo not drawn) [Compound 31, Trans-phenyl cyclopropyl hydrazine]
- IC50 (recombinant human LSD1; [1]): 5.8 µM
- Selectivity index for LSD1 (recombinant human LSD1; Table 2): >7
- IC50 (human MAO-A): 40.7 µM
- IC50 (human MAO-B): 87 µM

Compound: CN(C)c1ccc(CNC2CC2c2ccc(Br)cc2)cc1 (racemic) [Compound 20]
- IC50 (recombinant human LSD1; [1]): 71 µM

Compound: Brc1ccc(C2CC2NCc2ccncc2)cc1 (racemic) [Compound 21]
- IC50 (recombinant human LSD1; [1]): > 100 µM

Compound: O=C(CNC1CC1c1ccc(Br)cc1)N1CCNCC1 (racemic) [Compound 10]
- IC50 (recombinant human LSD1; [1]): 0.064 µM
- IC50 (recombinant human LSD1; Table 2): 0.064 µM
- Selectivity index for LSD1 (recombinant human LSD1; Table 2): >280
- IC50 (human MAO-A): 18.1 µM
- IC50 (human MAO-B): 23.1 µM

Compound: NC1CC1c1ccc(OCc2ccccc2)cc1 (racemic) [Compound 7]
- fold less active against LSD1 than the corresponding compounds 1–3 (recombinant human LSD1; 7 vs 1, 8 vs 2, 9 vs 3): 92 fold
- IC50 (recombinant human LSD1; [1]): 0.91 µM
- IC50 (recombinant human LSD1; Table 2): 0.91 µM
- Selectivity index for LSD1 (recombinant human LSD1; Table 2): <0.38
- IC50 (human MAO-A): 0.17 µM
- IC50 (human MAO-B): 0.35 µM
- IC50 (MAO-A and -B): 0.17 to 3.1 µM

Compound: O=C(NNC1CC1c1ccccc1)N1CCNCC1 (racemic) [Compound 33]
- IC50 (recombinant human LSD1; [1]): 84 µM

Compound: COc1cccc(C=NC2CC2c2ccc(Br)cc2)c1 (racemic) [Compound 27]
- IC50 (recombinant human LSD1; [1]): 0.9 µM
- fold more active against LSD1 than compound 24 (recombinant human LSD1): > 10 ×

Compound: CN1CCN(C(=O)CNC2CC2c2ccc(Br)cc2)CC1 (racemic) [Compound 3, reference compound]
- IC50 (recombinant human LSD1; [1]): 0.035 µM
- IC50 (recombinant human LSD1; Table 2): 0.035 µM
- Selectivity index for LSD1 (recombinant human LSD1; Table 2): >208
- IC50 (human MAO-A): 7.3 µM
- IC50 (human MAO-B): 16.3 µM

Compound: COc1ccccc1C=NC1CC1c1ccc(Br)cc1 (racemic) [Compound 26]
- selectivity for LSD1 inhibition (recombinant human LSD1): no LSD1 selectivity was observed
- IC50 (recombinant human LSD1; [1]): 0.74 µM
- IC50 (recombinant human LSD1; Table 2): 0.74 µM
- Selectivity index for LSD1 (recombinant human LSD1; Table 2): <0.54
- fold more active against LSD1 than compound 24 (recombinant human LSD1): > 10 ×
- IC50 (human MAO-A): 0.3 µM
- IC50 (human MAO-B): 0.4 µM

Compound: Brc1ccc(C2CC2NCc2ccccc2)cc1 (stereo not shown) [Compound 17]
- IC50 (recombinant human LSD1; [1]): 5 µM

Compound: Brc1ccc(C2CC2NNCC2CCNCC2)cc1 (racemic) [Compound 34]
- IC50 (recombinant human LSD1; [1]): 1.7 µM
- fold less active against LSD1 than cyclopropylamine analog 15 (recombinant human LSD1; comparator compound 15): ~ 7 ×

Compound: Nc1ccc(CNC2CC2c2ccc(Br)cc2)cc1 (racemic) [Compound 19]
- IC50 (recombinant human LSD1; [1]): > 100 µM

Compound: CN1CCN(C(=O)CNCC#Cc2ccccc2)CC1 [Compound 35, 1-(4-methylpiperazin-1-yl)-2-((3-phenylprop-2-yn-1-yl)amino)ethan-1-one]
- IC50 (recombinant human LSD1; [1]): 36.4 µM
